25 molecules from patent US11731964B2, “Benzamide antibacterial agents” (Purdue Research Foundation, priority 2018, dated 2023) can be followed below.

Structures are written as SMILES. Converted amounts (≈) assume the structure as drawn.

Holding throughout (assay type): cell-based
Experiment [1] relates to S. aureus. Kind of experiment: Screening of compounds for growth inhibition of S. aureus at 16 μg/mL (OD600). The conditions noted are these: compound at 16 μg/mL, 24 hours, compared to DMSO control. The method, then:
Library compounds and analogs of F6 were dissolved in DMSO at 10 mg/mL. S. aureus was cultured in Mueller Hinton Broth to early exponential phase at which point culture aliquots were incubated with compounds at 16 μg/mL or DMSO in duplicates. The culture was continued at 37° C. for 24 hours. Aliquots (100 μL) of the cultures were dispensed into clear 96 well microtiter plates and OD600 was recorded. Percent normalized OD600 was obtained by using the equation [formula] wherein for a given compound, X is the OD600 of culture with the compound, Xo is that of media only and XT is the OD600 of the DMSO control.

Another experiment deals with MRSA ATCC 33592. Kind of experiment: MIC, broth microdilution. The conditions noted are these: Staphylococcus aureus; MRSA ATCC 33592; read-out: MIC. As to the method: (§1) Bacteria were cultured in cation-adjusted Mueller Hinton Broth (for strains in Tables 1 and 4) or Brain Heart Infusion broth (for Enterococcus faecium) or Tryptic Soy Broth (all other bacteria) in a 96-well plate at 37° C. for at least 20 hours. The MIC was classified as the lowest concentration where no visual growth of bacteria was observed. The minimum bactericidal concentration (MBC) was tested by spotting 4 μL from wells with no growth onto Tryptic Soy Agar (TSA) plates. Plates were incubated at 37° C. for at least 18 hours before recording the MBC.
Background: Broth dilution looks for growth in wells or tubes with falling amounts of substance.

Experiment [2] has as its system S. aureus. Put plainly: MIC (Table 5, strain not given). The conditions noted are these: Staphylococcus aureus; S. aureus (Table 5). As to the method:
as §1

The subject of the next experiment is E. faecalis. Put plainly: MIC (Table 5, strain not given). The note with it: Enterococcus faecalis; E. faecalis (Table 5). The method, then:
as §1

The test system of the next experiment is VRE. Put plainly: MIC (Table 5, strain not given). The note with it: Enterococcus; VRE (Table 5). The method, then: as §1
Another experiment deals with S. aureus ATCC 25923. Put plainly: MIC, broth microdilution. The conditions noted are these: Staphylococcus aureus, ATCC25923; S. aureus ATCC 25923; read-out: MIC. The method, then: as §1

As to `CC1CC(C)CN(S(=O)(=O)c2ccc(C(=O)Nc3nnc(C4CCCO4)s3)cc2)C1` (stereo not shown) [Compound F6-2, 4-((3,5-Dimethylpiperidin-1-yl)sulfonyl)-N-(5-(tetrahydrofuran-2-yl)-1,3,4-thiadiazol-2-yl)benzamide], the “inhibition of growth of S. aureus” value in the experiment on S. aureus [1] is “inactive”.
As for `CCOC(=O)c1nnc(NC(=O)c2ccc(S(=O)(=O)N3CC(C)CC(C)C3)cc2)o1` (stereo not shown) [Compound F6-3, Ethyl 5-(4-((3,5-dimethylpiperidin-1-yl)sulfonyl)benzamido)-1,3,4-oxadiazole-2-carboxylate], the “inhibition of growth of S. aureus” value in the experiment with S. aureus [1] is “inactive”.
`CC1CC(C)CN(S(=O)(=O)c2ccc(-c3nnc(-c4cccs4)o3)cc2)C1` (stereo not shown) [Compound F6-4, 2-(4-((3,5-Dimethylpiperidin-1-yl)sulfonyl)phenyl)-5-(thiophen-2-yl)-1,3,4-oxadiazole]: in the experiment on S. aureus [1], the “inhibition of growth of S. aureus” value is recorded as “not active”.
Turning to `CC1CC(C)CN(S(=O)(=O)c2ccc(C(=O)Nc3nnc(-c4cccs4)[nH]3)cc2)C1` (stereo not shown) [Compound F6-6, 4-((3,5-Dimethylpiperidin-1-yl)sulfonyl)-N-(5-(thiophen-2-yl)-4H-1,2,4-triazol-3-yl)benzamide], the “inhibition of growth of S. aureus” value in the experiment with S. aureus [1] is on record as “activity was lost”.
Take `CC1CC(C)CN(S(=O)(=O)c2ccc(C(=O)Nc3nnc(-c4cccs4)s3)cc2)C1` (stereo not shown) [Compound F6-7, 4-((3,5-Dimethylpiperidin-1-yl)sulfonyl)-N-(5-(thiophen-2-yl)-1,3,4-thiadiazol-2-yl)benzamide]: the “inhibition of growth of S. aureus” value in the experiment on S. aureus [1] is recorded as “activity was lost”.
As to `O=C(Nc1nnc(-c2ccco2)o1)c1ccc(S(=O)(=O)N2CCOCC2)cc1` [Compound F9], the “inhibition of growth of S. aureus” value in the experiment with S. aureus [1] was “not active”.
Turning to `CN(CC1CCCO1)S(=O)(=O)c1ccc(C(=O)Nc2nnc(-c3ccccc3)o2)cc1` (stereo not shown) [Compound G9], the “inhibition of growth of S. aureus” value with S. aureus [1] is “only slightly inhibited growth”.
One may read the MIC as the lowest concentration that inhibits growth of the organism. With `O=C(Nc1nnc(-c2cccs2)o1)c1ccc(S(=O)(=O)Cc2ccccc2)cc1` [HSGN-104, 4-(benzylsulfonyl)-N-(5-(thiophen-2-yl)-1,3,4-oxadiazol-2-yl)benzamide], the MIC in the experiment with MRSA ATCC 33592 is 32 µg/mL (≈ 75.2 µM); in the experiment with S. aureus [2], 64 µg/mL (≈ 150 µM); against E. faecalis, 64 µg/mL (≈ 150 µM); in the experiment on VRE, over 128 µg/mL.
`C[C@@H]1C[C@H](C)CN(S(=O)(=O)c2ccc(C(=O)Nc3nnc(-c4cccc(Cl)c4)o3)cc2)C1` [HSGN-110, N-(5-(3-chlorophenyl)-1,3,4-oxadiazol-2-yl)-4-(((3S,5R)-3,5-dimethylpiperidin-1-yl)sulfonyl)benzamide]: the minimal inhibitory concentration (MIC) was found to be 0.5 µg/mL (≈ 1.05 µM) with MRSA ATCC 33592, 1 µg/mL (≈ 2.11 µM) against S. aureus [2], 1 µg/mL (≈ 2.11 µM) in the experiment with E. faecalis and 2 µg/mL (≈ 4.21 µM) against VRE.
As for `C[C@@H]1C[C@H](C)CN(S(=O)(=O)c2ccc(C(=O)Nc3nnc(-c4cccc(F)c4)o3)cc2)C1` [HSGN-111, 4-(((3S,5R)-3,5-dimethylpiperidin-1-yl)sulfonyl)-N-(5-(3-fluorophenyl)-1,3,4-oxadiazol-2-yl)benzamide], the MIC in the experiment on MRSA ATCC 33592 came out at 0.5 µg/mL (≈ 1.09 µM); in the experiment with S. aureus [2], 2 µg/mL (≈ 4.36 µM); against E. faecalis, 2 µg/mL (≈ 4.36 µM); against VRE, 2 µg/mL (≈ 4.36 µM).
Consider `COc1cccc(-c2nnc(NC(=O)c3ccc(S(=O)(=O)N4C[C@H](C)C[C@H](C)C4)cc3)o2)c1` [HSGN-112, 4-(((3S,5R)-3,5-dimethylpiperidin-1-yl)sulfonyl)-N-(5-(3-methoxyphenyl)-1,3,4-oxadiazol-2-yl)benzamide], for which the minimal inhibitory concentration (MIC) with MRSA ATCC 33592 came out at 2 µg/mL (≈ 4.25 µM); against S. aureus [2], 4 µg/mL (≈ 8.5 µM); with E. faecalis, 8 µg/mL (≈ 17 µM); in the experiment with VRE it was 4 µg/mL (≈ 8.5 µM).
For `C[C@@H]1C[C@H](C)CN(S(=O)(=O)c2ccc(C(=O)Nc3nnc(-c4cccc(C(F)(F)F)c4)o3)cc2)C1` [HSGN-122, 4-(((3S,5R)-3,5-dimethylpiperidin-1-yl)sulfonyl)-N-(5-(3-(trifluoromethyl)phenyl)-1,3,4-oxadiazol-2-yl)benzamide], the MIC is 1 µg/mL (≈ 1.97 µM) with MRSA ATCC 33592, 2 µg/mL (≈ 3.93 µM) in the experiment with S. aureus [2], 4 µg/mL (≈ 7.87 µM) in the experiment with E. faecalis and 8 µg/mL (≈ 15.7 µM) against VRE.
The like results for `Cc1nc(C)c(-c2nnc(NC(=O)c3ccc(S(=O)(=O)N4C[C@H](C)C[C@H](C)C4)cc3)o2)s1` [HSGN-123, 4-(((3S,5R)-3,5-dimethylpiperidin-1-yl)sulfonyl)-N-(5-(2,4-dimethylthiazol-5-yl)-1,3,4-oxadiazol-2-yl)benzamide] were, in that order, 8 µg/mL (≈ 16.8 µM), 16 µg/mL (≈ 33.6 µM), 32 µg/mL (≈ 67.3 µM) and 64 µg/mL (≈ 135 µM).
`C[C@@H]1C[C@H](C)CN(S(=O)(=O)c2ccc(C(=O)Nc3nnc(-c4cccc(C(=N)NO)c4)o3)cc2)C1` [HSGN-151, 4-(((3S,5R)-3,5-dimethylpiperidin-1-yl)sulfonyl)-N-(5-(3-(N-hydroxycarbamimidoyl)phenyl)-1,3,4-oxadiazol-2-yl)benzamide]: the MIC in the experiment on MRSA ATCC 33592 and with S. aureus [2] was over 64 µg/mL throughout.
On to `C[C@@H]1C[C@H](C)CN(S(=O)(=O)c2ccc(C(=O)Nc3ccc4[nH]c(=O)oc4c3)cc2)C1` [HSGN-158, 4-(((3S,5R)-3,5-dimethylpiperidin-1-yl)sulfonyl)-N-(2-oxo-2,3-dihydrobenzo[d]oxazol-6-yl)benzamide], for which the MIC in the experiment with MRSA ATCC 33592 and against S. aureus [2] was over 64 µg/mL each time.
Take `O=C1CN(S(=O)(=O)c2ccc(C(=O)Nc3nnc(-c4ccc(C(F)(F)F)cc4)o3)cc2)CCN1` [HSGN-162, 4-((3-oxopiperazin-1-yl)sulfonyl)-N-(5-(4-(trifluoromethyl)phenyl)-1,3,4-oxadiazol-2-yl)benzamide]: the MIC in the experiment on MRSA ATCC 33592 and against S. aureus [2] was over 64 µg/mL in each case.
Take `C[C@@H]1C[C@H](C)CN(S(=O)(=O)c2cccc(C(=O)Nc3nnc(-c4ccc(C(F)(F)F)cc4)o3)c2)C1` [HSGN-176, 3-(((3S,5R)-3,5-dimethylpiperidin-1-yl)sulfonyl)-N-(5-(4-(trifluoromethyl)phenyl)-1,3,4-oxadiazol-2-yl)benzamide]: the MIC in the experiment on MRSA ATCC 33592 and against S. aureus [2] was 8 µg/mL (≈ 15.7 µM) in each case.
Consider `Cc1ccc(C(=O)Nc2nnc(-c3ccc(C(F)(F)F)cc3)o2)cc1S(=O)(=O)N1C[C@H](C)C[C@H](C)C1` [HSGN-177, 3-(((3S,5R)-3,5-dimethylpiperidin-1-yl)sulfonyl)-4-methyl-N-(5-(4-(trifluoromethyl)phenyl)-1,3,4-oxadiazol-2-yl)benzamide], for which the MIC in the experiment with MRSA ATCC 33592 was 1 µg/mL (≈ 1.91 µM); in the experiment with S. aureus [2], 2 µg/mL (≈ 3.83 µM).
As for `C[C@@H]1C[C@H](C)CN(S(=O)(=O)c2ccc(C(=O)Nc3nnc(-c4ccccc4)o3)cc2)C1` [HSGN-180, 4-(((3S,5R)-3,5-dimethylpiperidin-1-yl)sulfonyl)-N-(5-phenyl-1,3,4-oxadiazol-2-yl)benzamide], the MIC in the experiment with MRSA ATCC 33592 and in the experiment with S. aureus [2] was 4 µg/mL (≈ 9.08 µM) each time.
Consider `Cc1ccc(-c2nnc(NC(=O)c3ccc(S(=O)(=O)N4C[C@H](C)C[C@H](C)C4)cc3)o2)cc1` [HSGN-181, 4-(((3S,5R)-3,5-dimethylpiperidin-1-yl)sulfonyl)-N-(5-(p-tolyl)-1,3,4-oxadiazol-2-yl)benzamide], for which the MIC was 8 µg/mL (≈ 17.6 µM) in the experiment with MRSA ATCC 33592 and 16 µg/mL (≈ 35.2 µM) in the experiment on S. aureus [2].
As to `C[C@@H]1C[C@H](C)CN(S(=O)(=O)c2ccc(C(=O)Nc3nnc(-c4ccc(F)cc4F)o3)cc2)C1` [HSGN-182, N-(5-(2,4-difluorophenyl)-1,3,4-oxadiazol-2-yl)-4-(((3S,5R)-3,5-dimethylpiperidin-1-yl)sulfonyl)benzamide], the MIC in the experiment on MRSA ATCC 33592 and in the experiment on S. aureus [2] was 8 µg/mL (≈ 16.8 µM) each time.
As for `Cc1cc(C(=O)Nc2nnc(-c3ccc(C(F)(F)F)cc3)o2)ccc1S(=O)(=O)N1C[C@H](C)C[C@H](C)C1` [HSGN-189, 4-(((3S,5R)-3,5-dimethylpiperidin-1-yl)sulfonyl)-3-methyl-N-(5-(4-(trifluoromethyl)phenyl)-1,3,4-oxadiazol-2-yl)benzamide], the MIC with MRSA ATCC 33592 and in the experiment on S. aureus [2] was 0.25 µg/mL (≈ 0.478 µM) each time.
On to `CCCCOc1ccc(-c2nnc(NC(=O)c3ccc(S(=O)(=O)N4C[C@H](C)C[C@H](C)C4)cc3)o2)cc1` [HSGN-191, N-(5-(4-butoxyphenyl)-1,3,4-oxadiazol-2-yl)-4-(((3S,5R)-3,5-dimethylpiperidin-1-yl)sulfonyl)benzamide], for which the MIC with MRSA ATCC 33592 and in the experiment on S. aureus [2] was 16 µg/mL (≈ 31.2 µM) each time.
Regarding `Cc1cc(C(=O)Nc2nnc(-c3ccc(C(F)(F)F)cc3)o2)ccc1S(=O)(=O)N1CCC(C)CC1` [HSGN-195, 3-methyl-4-((4-methylpiperidin-1-yl)sulfonyl)-N-(5-(4-(trifluoromethyl)phenyl)-1,3,4-oxadiazol-2-yl)benzamide], the MIC is 0.5 µg/mL (≈ 0.983 µM) in the experiment on MRSA ATCC 33592 and 1 µg/mL (≈ 1.97 µM) against S. aureus [2].
For the molecule `COc1cccc(OC)c1C(=O)N[C@@H]1C(=O)N2[C@@H]1SC(C)(C)[C@@H]2C(=O)O` [Methicillin, reference compound], the MIC in the experiment with MRSA ATCC 33592 was over 128 µg/mL; in the experiment on S. aureus ATCC 25923, 2 µg/mL (≈ 5.26 µM).
